Experimental data as given in patent US5460977A, “Peptide having allergenicity” (Torii & Co., priority 1992, dated 1995).
Positions of bridges follow the written chain, without caps; N, C: chain ends. Residues, ends and D or L forms follow the SMILES beside them. Chains are numbered I, II in the order given.

Assays:
[1] = system: peripheral blood lymphocytes of mite-allergic patient; experiment: Blast formation of lymphocytes (3H-thymidine incorporation), mite-allergic patients; type: cell-based, human; conditions: 7 days culture with peptide, 3H-thymidine overnight; for radioactivity of 3H-thymidine incorporated into lymphocytes, Specimen 1: Specimen 1, lymphocytes of mite-allergic patient; for radioactivity of 3H-thymidine incorporated into lymphocytes, Specimen 2: Specimen 2, lymphocytes of mite-allergic patient; for radioactivity of 3H-thymidine incorporated into lymphocytes, Specimen 3: Specimen 3, lymphocytes of mite-allergic patient
Procedure: (§1) Blast formation of lymphocytes by peptides of formula I-V of the present invention
(§2) Peripheral blood lymphocytes collected from a mite-allergic patient or a non-allergic subject were suspended in a cell culture medium RPMI 1640 supplemented with 10% fetal bovine serum, so as to give a suspension of 1×10^6 cells/ml. Then, the suspension (0.2 ml/well) prepared above was placed in a 96-well microplate for cell culture and further, 20 μl each of a solution of one of the peptides of the formula I-V was placed in the respective wells. The lymphocytes thus treated were cultivated in a humidified atmosphere containing 5% CO2 at 37° C. for 7 days. Thereafter, 20 μl of a ^3 H-thymidine solution (12.5 μCi/ml) was added to each of the wells and allowed to react overnight. The peripheral blood lymphocytes were then collected onto filter, and the radioactivity was measured by a liquid scintillation counter.
(§3) As is apparent from Table 1, virtually no incorporation of ^3 H-thymidine was recognized in the peripheral blood lymphocyte of a non-allergic subject, while a high radioactivity was detected from the peripheral blood lymphocytes of a mite-allergic patient.

[2] = system: peripheral blood lymphocytes of non-allergic subject; experiment: Blast formation of lymphocytes (3H-thymidine incorporation), non-allergic subject; type: cell-based, human; conditions: Specimen 4, lymphocytes of non-allergic subject; 7 days culture with peptide, 3H-thymidine overnight
Procedure: as §1, §2, §3

“H-GVLACAIATHAKIRD-OH [III, H-Gly-Val-Leu-Ala-Cys-Ala-Ile-Ala-Thr-His-Ala-Lys-Ile-Arg-Asp-OH]” was tested, and the “radioactivity of 3H-thymidine incorporated into lymphocytes, Specimen 1” value (shortened to “radioactivity … Specimen 1”) [1] was 547 cpm, the “radioactivity of 3H-thymidine incorporated into lymphocytes, Specimen 2” value (from here on “radioactivity … Specimen 2”) [1] was 259 cpm and the “radioactivity of 3H-thymidine incorporated into lymphocytes, Specimen 3” value (“radioactivity … Specimen 3” for short) [1] was 158 cpm. For the same molecule, the “radioactivity of 3H-thymidine incorporated into lymphocytes, Specimen 4” value (“radioactivity … Specimen 4” for short) [2] was < 100 cpm.

CC[C@H](C)[C@H](NC(=O)[C@H](C)NC(=O)[C@H](CSSC[C@H](NC(=O)[C@H](C)NC(=O)[C@H](CC(C)C)NC(=O)[C@@H](NC(=O)CN)C(C)C)C(=O)N[C@@H](C)C(=O)N[C@H](C(=O)N[C@@H](C)C(=O)N[C@H](C(=O)N[C@@H](Cc1c[nH]cn1)C(=O)N[C@@H](C)C(=O)N[C@@H](CCCCN)C(=O)N[C@H](C(=O)N[C@@H](CCCNC(=N)N)C(=O)N[C@@H](CC(=O)O)C(=O)O)[C@@H](C)CC)[C@@H](C)O)[C@@H](C)CC)NC(=O)[C@H](C)NC(=O)[C@H](CC(C)C)NC(=O)[C@@H](NC(=O)CN)C(C)C)C(=O)N[C@@H](C)C(=O)N[C@H](C(=O)N[C@@H](Cc1c[nH]cn1)C(=O)N[C@@H](C)C(=O)N[C@@H](CCCCN)C(=O)N[C@H](C(=O)N[C@@H](CCCNC(=N)N)C(=O)N[C@@H](CC(=O)O)C(=O)O)[C@@H](C)CC)[C@@H](C)O [IV] (I: H-GVLACAIATHAKIRD-OH / II: H-GVLACAIATHAKIRD-OH; disulfide I:5-II:5) was tested, and the “radioactivity … Specimen 1” value [1] was 374 cpm, the “radioactivity … Specimen 2” value [1] was 324 cpm and the “radioactivity … Specimen 3” value [1] was 162 cpm. For the same molecule, the “radioactivity … Specimen 4” value [2] was < 100 cpm.

CC[C@H](C)[C@H](NC(=O)[C@H](C)NC(=O)[C@H](CSSC[C@H](NC(=O)[C@H](CC(=O)O)NC(=O)[C@H](CCCCN)NC(=O)[C@@H](NC(=O)[C@H](CC(=O)O)NC(=O)[C@@H](NC(=O)[C@H](CCC(N)=O)NC(=O)[C@@H](N)CC(=O)O)C(C)C)C(C)C)C(=O)N[C@@H](C)C(=O)N[C@@H](CC(N)=O)C(=O)N[C@@H](CC(N)=O)C(=O)N[C@@H](CCC(=O)O)C(=O)N[C@H](C(=O)N[C@@H](CCCCN)C(=O)N[C@@H](CCCCN)C(=O)O)[C@@H](C)CC)NC(=O)[C@H](C)NC(=O)[C@H](CC(C)C)NC(=O)[C@@H](NC(=O)CN)C(C)C)C(=O)N[C@@H](C)C(=O)N[C@H](C(=O)N[C@@H](Cc1c[nH]cn1)C(=O)N[C@@H](C)C(=O)N[C@@H](CCCCN)C(=O)N[C@H](C(=O)N[C@@H](CCCNC(=N)N)C(=O)N[C@@H](CC(=O)O)C(=O)O)[C@@H](C)CC)[C@@H](C)O [V] (I: H-DQVDVKDCANNEIKK-OH / II: H-GVLACAIATHAKIRD-OH; disulfide I:8-II:5) was tested, and the “radioactivity … Specimen 1” value [1] was 1457 cpm, the “radioactivity … Specimen 2” value [1] was 430 cpm and the “radioactivity … Specimen 3” value [1] was 179 cpm. The “radioactivity … Specimen 4” value [2] was < 100 cpm.

With CC[C@H](C)[C@H](NC(=O)[C@H](CCC(=O)O)NC(=O)[C@H](CC(N)=O)NC(=O)[C@H](CC(N)=O)NC(=O)[C@H](C)NC(=O)[C@H](CSSC[C@H](NC(=O)[C@H](CC(=O)O)NC(=O)[C@H](CCCCN)NC(=O)[C@@H](NC(=O)[C@H](CC(=O)O)NC(=O)[C@@H](NC(=O)[C@H](CCC(N)=O)NC(=O)[C@@H](N)CC(=O)O)C(C)C)C(C)C)C(=O)N[C@@H](C)C(=O)N[C@@H](CC(N)=O)C(=O)N[C@@H](CC(N)=O)C(=O)N[C@@H](CCC(=O)O)C(=O)N[C@H](C(=O)N[C@@H](CCCCN)C(=O)N[C@@H](CCCCN)C(=O)O)[C@@H](C)CC)NC(=O)[C@H](CC(=O)O)NC(=O)[C@H](CCCCN)NC(=O)[C@@H](NC(=O)[C@H](CC(=O)O)NC(=O)[C@@H](NC(=O)[C@H](CCC(N)=O)NC(=O)[C@@H](N)CC(=O)O)C(C)C)C(C)C)C(=O)N[C@@H](CCCCN)C(=O)N[C@@H](CCCCN)C(=O)O [II] (I: H-DQVDVKDCANNEIKK-OH / II: H-DQVDVKDCANNEIKK-OH; disulfide I:8-II:8) the “radioactivity … Specimen 1” value [1] was 219 cpm, the “radioactivity … Specimen 2” value [1] was 125 cpm and the “radioactivity … Specimen 3” value [1] was 158 cpm. For the same molecule, the “radioactivity … Specimen 4” value [2] was < 100 cpm.

With “H-DQVDVKDCANNEIKK-OH [I, H-Asp-Gln-Val-Asp-Val-Lys-Asp-Cys-Ala-Asn-Asn-Glu-Ile-Lys-Lys-OH]” the “radioactivity … Specimen 1” value [1] was 281 cpm, the “radioactivity … Specimen 2” value [1] was 389 cpm and the “radioactivity … Specimen 3” value [1] was 282 cpm. For the same molecule, the “radioactivity … Specimen 4” value [2] was < 100 cpm.
